From patent US20050209157A1, “Short bioactive peptides and methods for their use” (priority 2001, published 2005)
Read-outs that look alike come from different tables or passages of the source. No end group written: not given here.

What was measured:
[1] = tested on: Pseudomonas aeruginosa ATCC 9027; experiment: Antimicrobial assay I, MIC by OD measurement; assay type: cell-based; settings: 37° C. for 24 hours, absorbance 620 nm
[2] = tested on: Staphylococcus aureus ATCC 6538; experiment: Antimicrobial assay I, MIC by OD measurement; assay type: cell-based; settings: 37° C. for 24 hours, absorbance 620 nm
[3] = tested on: yeast (Saccharomyces cerevisiae); experiment: Antimicrobial assay I, yeast assay in RPMI 1640; assay type: cell-based; settings: RPMI 1640 media
S. epidermidis C621 = assay type: cell-based, Staphylococcus epidermidis; settings: mean of three; 16 to 20 hours at 35° C.
S. pneumoniae C719 = experiment: Antimicrobial assays II, NCCLS broth microdilution MIC; assay type: cell-based, Streptococcus pneumoniae; settings: mean of three, in µg/mL
BMKC = experiment: Anti-cancer assay, MTT, LD50; assay type: cell-based; settings: BMKC cloned melanoma line, 24 hours with peptide
Description: (§1) Numbers are LD50 values (μg/mL).

H1299 = experiment: Anti-cancer assay, MTT, LD50; assay type: cell-based; settings: 24 hours with peptide, lung large cell carcinoma
Description: as §1

HeLaS3 = experiment: Anti-cancer assay, MTT, LD50; assay type: cell-based; settings: 24 hours with peptide, cervical carcinoma
Description: as §1

MCF7 = experiment: Anti-cancer assay, MTT, LD50; assay type: cell-based; settings: MCF7 breast adenocarcinoma line, MTT, 24 hours with peptide
Description: as §1

PC3 = experiment: Anti-cancer assay, MTT, LD50; assay type: cell-based; settings: 24 hours with peptide, prostate adenocarcinoma
Description: as §1

SW480 = experiment: Anti-cancer assay, MTT, LD50; assay type: cell-based; settings: SW480 colon adenocarcinoma line, 24 hours with peptide
Description: as §1

P. aeruginosa H374 [4] = assay type: cell-based, Pseudomonas aeruginosa; settings: for MIC Cm-comb.: MIC of chloramphenicol with peptide at ¼ MIC; for MIC Nal-comb.: MIC of nalidixic acid with peptide at ¼ MIC; for FIC Index: 0.5 or less = synergy
Method in brief: (§2)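 Efflux-mutant strains were tested with two-fold serial dilutions of chloramphenicol or nalidixic acid, alone and with peptide held at ¼ of its own MIC.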

P. aeruginosa H774 = assay type: cell-based, Pseudomonas aeruginosa; settings: P. aeruginosa H744; nalidixic acid + peptide at ¼ MIC; 0.5 or less = synergy
Method in brief: as §2

P. aeruginosa = assay type: cell-based, Pseudomonas aeruginosa; settings: P. aeruginosa H744; MIC of nalidixic acid with peptide at ¼ MIC
Method in brief: as §2

collagen = experiment: Collagen stimulation, ELISA on fibroblast cell lines; assay type: cell-based
Procedure: (§3) Fibroblast cell lines were cultured under standard conditions and assayed for collagen and laminin using an ELISA system manufactured by Panvera (Madison, Wis.). Antibodies for collagen and laminin manufactured by Takara Shuzo Co., Ltd Japan. […] The other three peptides tested neither stimulated nor inhibited production (i.e. no effect was observed).

laminin = experiment: Laminin stimulation, ELISA on fibroblast cell lines; assay type: cell-based
Procedure: as §3

WI38 = settings: MTT, 24 hours with peptide; normal fibroblast line
in vitro = settings: human, WI38 normal lung fibroblast cells, LD50 WI38, WI38 normal lung fibroblast line, MTT, 24 hours with peptide
P. aeruginosa H374 [5] = assay type: cell-based, Pseudomonas aeruginosa; settings: mean of three; 16 to 20 hours at 35° C.
[6] = chloramphenicol + peptide at ¼ MIC
[7] = nalidixic acid + peptide at ¼ MIC, FIC=0.25+MIC comb/MIC alone

FALKALKKLKKALKKAL-NH2 [P153]
paerug9027 (MIC) [1]: 25 µg/mL | staph6538 (MIC) [2]: 5 µg/mL | yeast (MIC or MFC) [3]: 100 µg/mL | S. epidermidis C621 MIC (S. epidermidis C621): 4 µg/mL | S. pneumoniae MIC (S. pneumoniae C719): 8 | LD50 BMKC (BMKC): 165 µg/mL | H1299 LD50 (H1299): 50 µg/mL | HeLaS3 LD50 (HeLaS3): 140 µg/mL | LD50 MCF7 (MCF7): 64 µg/mL | PC3 LD50 (PC3): 97 µg/mL | LD50 SW480 (SW480): 61 µg/mL | MIC Cm-comb. (P. aeruginosa H374 [4]): 8 µg/mL | MIC Nal-comb. (P. aeruginosa H374 [4]): 5000 µg/mL | FIC Index (P. aeruginosa H374 [4]; [6]): 0.75 | FIC Index (P. aeruginosa H374 [4]; [7]): 1.25 | FIC Index (P. aeruginosa H774): 1.25 | MIC Nal-comb. (P. aeruginosa): 624 µg/mL | Collagen stimulation (collagen): 120% | Laminin stimulation (laminin): 32% | WI38 LD50 (WI38): 130 µg/mL | CC50 at 24 h (in vitro): 130 µg/mL

FAVGLRAIKRALKKLRRGVRKVAKDL-NH2 [P157, reference compound]
paerug9027 (MIC) [1]: > (> indicates greater than 200 μg/mL) | staph6538 (MIC) [2]: 200 µg/mL | yeast (MIC or MFC) [3]: > (> indicates greater than 200 μg/mL) | S. epidermidis C621 MIC (S. epidermidis C621): 4 µg/mL | S. pneumoniae MIC (S. pneumoniae C719): 16 | P. aeruginosa H374 MIC (P. aeruginosa H374 [5]): 8 µg/mL | LD50 BMKC (BMKC): 600 µg/mL | H1299 LD50 (H1299): 315 µg/mL | HeLaS3 LD50 (HeLaS3): > (> indicates greater than 1000) | LD50 MCF7 (MCF7): 240 µg/mL | PC3 LD50 (PC3): 375 µg/mL | LD50 SW480 (SW480): 530 µg/mL | MIC Cm-comb. (P. aeruginosa H374 [4]): 8 µg/mL | MIC Nal-comb. (P. aeruginosa H374 [4]): 2500 µg/mL | FIC Index (P. aeruginosa H374 [4]; [6]): 0.75 | FIC Index (P. aeruginosa H374 [4]; [7]): 0.75 | FIC Index (P. aeruginosa H774): 1.25 | MIC Nal-comb. (P. aeruginosa): 624 µg/mL | WI38 LD50 (WI38): 500 µg/mL | CC50 at 24 h (in vitro): 500 µg/mL

MPKWKVFKKIEKVGRNIRNGIVKAGPAIAVLGEAKALG-NH2 [P12, reference compound]
paerug9027 (MIC) [1]: 100 µg/mL | staph6538 (MIC) [2]: > (> indicates greater than 200 μg/mL) | yeast (MIC or MFC) [3]: > (> indicates greater than 200 μg/mL) | P. aeruginosa H374 MIC (P. aeruginosa H374 [5]): 8 µg/mL | LD50 BMKC (BMKC): > (> indicates greater than 1000) | H1299 LD50 (H1299): 720 µg/mL | HeLaS3 LD50 (HeLaS3): > (> indicates greater than 1000) | LD50 MCF7 (MCF7): 540 µg/mL | PC3 LD50 (PC3): 630 µg/mL | LD50 SW480 (SW480): > (> indicates greater than 1000) | MIC Cm-comb. (P. aeruginosa H374 [4]): 16 µg/mL | MIC Nal-comb. (P. aeruginosa H374 [4]): 2500 µg/mL | FIC Index (P. aeruginosa H374 [4]; [6]): 1.25 | FIC Index (P. aeruginosa H374 [4]; [7]): 0.75 | FIC Index (P. aeruginosa H774): 0.75 | MIC Nal-comb. (P. aeruginosa): 312 µg/mL | Collagen stimulation (collagen): 0% | Laminin stimulation (laminin): 0% | WI38 LD50 (WI38): 950 µg/mL | CC50 at 24 h (in vitro): 950 µg/mL
